In US20250221998A1, “DISCOVERY OF COVALENT EGFR INHIBITOR THROUGH CYSTEINE 775” (Dana-Farber Cancer Institute, Inc., priority 2022, published 2025):

Key:
Format in all cases: cell-based, murine
[1] = biological target: EGFR mutant L858R Ba/F3 cells (Homo sapiens, UniProt P00533, L858R, cells depend on it); assay: Ba/F3 cell proliferation (Cell Titer Glo), EGFR L858R; settings: 72 hours exposure, read-out: L858R BaF3 (μM), inhibitory activity against EGFR mutants
Summary of the method: (§1)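 Ba/F3 cells stably expressing retrovirally transduced EGFR L858R, L858R/C797S or L858R/C775S, puromycin-selected. Compound exposure 72 hours in triplicate; viability by Cell Titer Glo ATP luminescence.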

[2] = biological target: EGFR L858R/C797S Ba/F3 cells (Homo sapiens, UniProt P00533, C797S/L858R, cells depend on it); assay: Ba/F3 cell proliferation (Cell Titer Glo), EGFR L858R/C797S; settings: 72 hours exposure, read-out: L858R/C797S (μM), inhibitory activity against EGFR mutants
Summary of the method: as §1

[3] = biological target: EGFR L858R/C775S Ba/F3 cells (Homo sapiens, UniProt P00533, C775S/L858R, cells depend on it); assay: Ba/F3 cell proliferation (Cell Titer Glo), EGFR L858R/C775S; settings: 72 hours exposure, read-out: L858R/C775S (μM), inhibitory activity against EGFR mutants
Text: The EGFR mutant L858R Ba/F3 cells have been previously described (Zhou, W., et al. Nature 462, 2009, 1070-1074). The EGFR C797S and C775S mutations were introduced via site directed mutagenesis using the Quick Change Site-Directed Mutagenesis kit into a vector containing EGFR L858R mutation (Stratagene; La Jolla, CA) according to the manufacturer's instructions. All constructs were confirmed by DNA sequencing. The constructs were then shuttled into the retroviral vector JP1540 by either using the Cre-recombination system (Agilent Technologies, Santa Clara, CA) or the In-fusion HD Cloning kit (Takara Bio USA, Inc.; Mountain view, CA). Ba/F3 cells were then infected with retrovirus per standard protocols, as described previously (Zhou, et al, Nature 2009). Stable clones were obtained by selection in puromycin (2 ug/ml). All BaF/3 mutant cells were maintained in RPMI 1640 (Cellgro; Mediatech Inc., Herndon, CA) supplemented with 10% FBS, 100 units/mL penicillin, 100 units/mL streptomycin.
Growth and inhibition of growth was assessed by the Cell Titer Glo assay (Promega, Madison, WI) and was performed according to the manufacturer's instructions. The Cell Titer Glo assay is a luminescence-based method used to determine the number of viable cells based on quantitation of the ATP present, which is directly proportional to the amount of metabolically active cells present. Ba/F3 cells of different EGFR genotypes were exposed to compounds for 72 hours and the number of cells used per experiment was determined empirically as has been previously established (Zhou, et al., Nature 2009). All experimental points were set up in triplicates in 384-well plates. […] The curves were fitted using a non-linear regression model with a sigmoidal dose response.
For inhibitory activity against EGFR mutants, the following designations are used: ≤0·25 μM=A, 0·25 μM˜0.5 μM=B, 0.5 μM˜2.5 μM=C, ≥2.5 μM=D.

Sequence of EGFR mutant L858R Ba/F3 cells (P00533 whole entry L858R): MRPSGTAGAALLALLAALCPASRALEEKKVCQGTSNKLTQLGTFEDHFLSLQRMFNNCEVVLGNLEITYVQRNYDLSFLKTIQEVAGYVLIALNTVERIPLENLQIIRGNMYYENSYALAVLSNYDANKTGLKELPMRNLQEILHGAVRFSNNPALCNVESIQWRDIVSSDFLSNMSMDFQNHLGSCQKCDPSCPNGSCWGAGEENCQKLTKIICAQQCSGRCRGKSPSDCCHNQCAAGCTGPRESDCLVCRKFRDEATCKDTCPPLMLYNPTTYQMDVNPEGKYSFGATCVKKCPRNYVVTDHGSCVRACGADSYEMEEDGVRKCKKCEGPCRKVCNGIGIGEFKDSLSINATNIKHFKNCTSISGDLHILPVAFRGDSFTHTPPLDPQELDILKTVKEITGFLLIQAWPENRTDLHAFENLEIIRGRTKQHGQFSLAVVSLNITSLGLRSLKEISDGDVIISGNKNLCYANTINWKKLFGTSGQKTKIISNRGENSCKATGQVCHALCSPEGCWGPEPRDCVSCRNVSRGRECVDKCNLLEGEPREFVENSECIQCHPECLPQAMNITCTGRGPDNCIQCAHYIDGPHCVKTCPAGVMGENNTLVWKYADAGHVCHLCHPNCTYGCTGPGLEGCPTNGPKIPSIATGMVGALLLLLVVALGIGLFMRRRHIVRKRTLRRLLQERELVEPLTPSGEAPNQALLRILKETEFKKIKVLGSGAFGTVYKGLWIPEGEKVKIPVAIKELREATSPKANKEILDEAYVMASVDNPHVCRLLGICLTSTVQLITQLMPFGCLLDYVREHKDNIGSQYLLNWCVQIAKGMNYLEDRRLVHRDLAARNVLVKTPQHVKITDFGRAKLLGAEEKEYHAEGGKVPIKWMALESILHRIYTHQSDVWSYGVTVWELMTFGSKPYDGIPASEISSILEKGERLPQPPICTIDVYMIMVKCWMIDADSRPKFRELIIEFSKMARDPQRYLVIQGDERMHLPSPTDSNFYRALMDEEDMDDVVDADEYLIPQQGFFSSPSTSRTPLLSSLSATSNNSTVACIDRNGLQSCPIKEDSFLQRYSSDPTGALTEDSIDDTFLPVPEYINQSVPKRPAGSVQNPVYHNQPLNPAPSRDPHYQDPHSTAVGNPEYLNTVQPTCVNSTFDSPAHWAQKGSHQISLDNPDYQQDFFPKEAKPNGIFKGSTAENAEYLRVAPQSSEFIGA
Sequence of EGFR L858R/C797S Ba/F3 cells (P00533 whole entry C797S/L858R): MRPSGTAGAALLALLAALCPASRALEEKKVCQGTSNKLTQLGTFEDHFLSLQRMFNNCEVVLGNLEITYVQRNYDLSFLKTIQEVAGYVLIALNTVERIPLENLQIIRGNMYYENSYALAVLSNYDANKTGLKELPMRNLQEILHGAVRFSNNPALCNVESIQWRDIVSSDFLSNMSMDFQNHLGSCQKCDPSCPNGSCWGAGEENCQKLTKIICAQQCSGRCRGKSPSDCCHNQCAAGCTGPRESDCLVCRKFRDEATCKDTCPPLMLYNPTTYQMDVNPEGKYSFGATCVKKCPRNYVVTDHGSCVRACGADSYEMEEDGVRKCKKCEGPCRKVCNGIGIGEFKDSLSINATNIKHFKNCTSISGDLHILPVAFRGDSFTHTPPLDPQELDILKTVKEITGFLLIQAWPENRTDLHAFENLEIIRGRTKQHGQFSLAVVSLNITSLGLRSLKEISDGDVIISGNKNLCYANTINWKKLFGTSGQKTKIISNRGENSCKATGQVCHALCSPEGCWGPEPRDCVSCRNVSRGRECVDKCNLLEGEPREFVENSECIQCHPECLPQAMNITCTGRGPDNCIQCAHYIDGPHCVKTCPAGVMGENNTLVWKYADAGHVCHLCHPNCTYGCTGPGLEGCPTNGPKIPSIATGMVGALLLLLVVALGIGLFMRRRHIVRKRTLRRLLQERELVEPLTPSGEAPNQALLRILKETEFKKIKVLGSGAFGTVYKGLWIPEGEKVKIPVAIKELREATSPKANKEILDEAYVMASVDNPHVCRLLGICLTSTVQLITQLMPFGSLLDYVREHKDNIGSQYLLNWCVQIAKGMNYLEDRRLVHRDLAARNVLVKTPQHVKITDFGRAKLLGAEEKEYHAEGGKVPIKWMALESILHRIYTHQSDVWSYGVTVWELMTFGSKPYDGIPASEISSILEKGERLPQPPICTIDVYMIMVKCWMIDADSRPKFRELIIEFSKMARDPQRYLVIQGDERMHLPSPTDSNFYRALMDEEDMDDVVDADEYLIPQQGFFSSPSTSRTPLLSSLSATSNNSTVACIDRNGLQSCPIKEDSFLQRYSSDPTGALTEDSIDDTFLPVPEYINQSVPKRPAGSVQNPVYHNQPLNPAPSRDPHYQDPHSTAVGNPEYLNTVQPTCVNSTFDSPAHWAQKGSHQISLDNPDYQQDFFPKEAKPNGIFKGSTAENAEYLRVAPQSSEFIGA
Sequence of EGFR L858R/C775S Ba/F3 cells (P00533 whole entry C775S/L858R, the tested form may be a part): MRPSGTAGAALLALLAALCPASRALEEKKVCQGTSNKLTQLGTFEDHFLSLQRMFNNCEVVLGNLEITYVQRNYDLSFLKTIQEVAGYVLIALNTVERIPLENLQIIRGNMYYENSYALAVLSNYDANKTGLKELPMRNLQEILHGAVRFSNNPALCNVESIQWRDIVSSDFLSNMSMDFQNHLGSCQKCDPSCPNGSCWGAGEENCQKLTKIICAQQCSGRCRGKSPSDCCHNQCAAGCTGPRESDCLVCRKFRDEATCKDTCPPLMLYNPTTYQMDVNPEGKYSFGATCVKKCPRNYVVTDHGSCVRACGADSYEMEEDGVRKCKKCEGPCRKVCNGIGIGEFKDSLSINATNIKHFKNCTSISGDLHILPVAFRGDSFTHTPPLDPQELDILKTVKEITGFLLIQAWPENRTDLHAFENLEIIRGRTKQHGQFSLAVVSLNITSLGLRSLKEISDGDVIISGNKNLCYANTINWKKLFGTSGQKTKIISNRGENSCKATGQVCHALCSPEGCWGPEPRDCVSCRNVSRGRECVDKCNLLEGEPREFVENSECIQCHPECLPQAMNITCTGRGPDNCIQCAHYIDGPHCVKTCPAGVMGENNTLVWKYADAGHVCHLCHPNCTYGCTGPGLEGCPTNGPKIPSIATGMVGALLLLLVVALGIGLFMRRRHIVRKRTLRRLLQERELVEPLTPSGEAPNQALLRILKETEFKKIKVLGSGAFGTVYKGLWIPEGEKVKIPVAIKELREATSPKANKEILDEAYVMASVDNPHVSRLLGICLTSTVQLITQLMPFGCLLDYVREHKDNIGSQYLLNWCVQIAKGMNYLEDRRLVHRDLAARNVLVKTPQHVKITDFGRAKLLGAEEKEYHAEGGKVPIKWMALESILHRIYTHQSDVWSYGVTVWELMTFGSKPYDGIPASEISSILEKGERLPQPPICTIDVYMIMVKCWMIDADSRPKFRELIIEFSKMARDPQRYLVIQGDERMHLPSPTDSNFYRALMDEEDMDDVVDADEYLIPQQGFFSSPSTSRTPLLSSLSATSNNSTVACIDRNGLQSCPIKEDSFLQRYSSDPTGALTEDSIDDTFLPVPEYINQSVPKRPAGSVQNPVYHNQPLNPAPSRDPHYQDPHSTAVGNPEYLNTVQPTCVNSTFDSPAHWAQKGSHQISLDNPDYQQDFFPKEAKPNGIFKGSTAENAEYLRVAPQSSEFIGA

Structure (SMILES)	GI50 [1] [µM]	GI50 [2] [µM]	GI50 [3] [µM]
C=CC(=O)Nc1ccccc1Cc1cc2cnc(Nc3ccc(N4CCN(C)CC4)cc3)nc2n(C)c1=O [Compound 001, N-[2-[[8-methyl-2-[4-(4-methylpiperazin-1-yl)anilino]-7-oxo-pyrido[2,3-d]pyrimidin-6-yl]methyl]phenyl]prop-2-enamide]	0.25 to 0.5	0.5 to 2.5	0.5 to 2.5
C=CC(=O)Nc1ccccc1Oc1cc2cnc(Nc3ccc(N4CCN(C)CC4)cc3)nc2n(C)c1=O [Compound 002, N-[2-[8-methyl-2-[4-(4-methylpiperazin-1-yl)anilino]-7-oxo-pyrido[2,3-d]pyrimidin-6-yl]oxyphenyl]prop-2-enamide]	≤ 0.25	0.25 to 0.5	≥ 2.5
C=CC(=O)N1CCc2cccc(Oc3cc4cnc(Nc5ccc(N6CCN(C)CC6)cc5)nc4n(C)c3=O)c21 [Compound 003]	0.5 to 2.5	≥ 2.5	0.5 to 2.5
C=CC(=O)Nc1ccccc1Oc1cc2cnc(Nc3ccc(N4CCN(C)CC4)cc3OC)nc2n(C)c1=O [Compound 004]	0.25 to 0.5	0.5 to 2.5	≥ 2.5
C=CC(=O)Nc1ccccc1Oc1cc2cnc(Nc3ccc(N4CCN(C)CC4)nc3)nc2n(C)c1=O [Compound 005]	0.5 to 2.5	≥ 2.5	≥ 2.5
C#CC(=O)Nc1ccccc1Oc1cc2cnc(Nc3ccc(N4CCN(C)CC4)cc3)nc2n(C)c1=O [Compound 006, N-[2-[8-methyl-2-[4-(4-methylpiperazin-1-yl)anilino]-7-oxo-pyrido[2,3-d]pyrimidin-6-yl]oxyphenyl]prop-2-ynamide]	0.25 to 0.5	≥ 2.5	≥ 2.5
C=CC(=O)N1CCN(c2cc3cnc(N)nc3n(-c3ccc(N4CCOCC4)cc3)c2=O)c2cccc(C)c21 [Compound 089, 2-amino-6-(5-methyl-4-prop-2-enoyl-2,3-dihydroquinoxalin-1-yl)-8-(4-morpholinophenyl)pyrido[2,3-d]pyrimidin-7-one]	≤ 0.25	≤ 0.25	–
C=CC(=O)N1CCN(c2cc3cnc(N)nc3n(-c3cccc(OC)c3)c2=O)c2cccc(C)c21 [Compound 090]	≤ 0.25	0.25 to 0.5	–
C=CC(=O)N1CCN(c2cc3cnc(N)nc3n(-c3cccc(Cl)c3)c2=O)c2cccc(C)c21 [Compound 091, 2-amino-8-(3-chlorophenyl)-6-(5-methyl-4-prop-2-enoyl-2,3-dihydroquinoxalin-1-yl)pyrido[2,3-d]pyrimidin-7-one]	≤ 0.25	0.25 to 0.5	–
C=CC(=O)N1CCN(c2cc3cnc(N)nc3n(-c3ccc(N4CCN(C)CC4)cc3)c2=O)c2cccc(C)c21 [Compound 092, 2-amino-8-[4-(4-methylpiperazin-1-yl)phenyl]-6-(5-methyl-4-prop-2-enoyl-2,3-dihydroquinoxalin-1-yl)pyrido[2,3-d]pyrimidin-7-one]	≤ 0.25	≤ 0.25	–
C=CC(=O)N1CCN(c2cc3cnc(N)nc3n(-c3ccc(OC4COC4)cc3)c2=O)c2cccc(C)c21 [Compound 093, 2-amino-6-(5-methyl-4-prop-2-enoyl-2,3-dihydroquinoxalin-1-yl)-8-[4-(oxetan-3-yloxy)phenyl]pyrido[2,3-d]pyrimidin-7-one]	≤ 0.25	0.25 to 0.5	–
C=CC(=O)N1CCN(c2cc3cnc(N)nc3n(-c3ccc(CN4CCOCC4)cc3)c2=O)c2cccc(C)c21 [Compound 094, 2-amino-6-(5-methyl-4-prop-2-enoyl-2,3-dihydroquinoxalin-1-yl)-8-[4-(morpholinomethyl)phenyl]pyrido[2,3-d]pyrimidin-7-one]	≤ 0.25	≤ 0.25	–
C=CC(=O)N1CCN(c2cc3cnc(NC4CC4)nc3n(-c3ccc(N(C)CCN(C)C)cc3)c2=O)c2cccc(C)c21 [Compound 095, 2-(cyclopropylamino)-8-[4-[2-(dimethylamino)ethyl-methyl-amino]phenyl]-6-(5-methyl-4-prop-2-enoyl-2,3-dihydroquinoxalin-1-yl)pyrido[2,3-d]pyrimidin-7-one]	≤ 0.25	≤ 0.25	–
C=CC(=O)N1CCN(c2cc3cnc(NC4CC4)nc3n(C3CCOC3)c2=O)c2cccc(C)c21 (stereo not drawn) [Compound 096, 2-(cyclopropylamino)-6-(5-methyl-4-prop-2-enoyl-2,3-dihydroquinoxalin-1-yl)-8-tetrahydrofuran-3-yl-pyrido[2,3-d]pyrimidin-7-one]	≤ 0.25	≤ 0.25	–
C=CC(=O)N1CCN(c2cc3cnc(NC4CC4)nc3n(C3CCOCC3)c2=O)c2cccc(C)c21 [Compound 097, 2-(cyclopropylamino)-6-(5-methyl-4-prop-2-enoyl-2,3-dihydroquinoxalin-1-yl)-8-tetrahydropyran-4-yl-pyrido[2,3-d]pyrimidin-7-one]	≤ 0.25	≤ 0.25	–
C=CC(=O)N1CCN(c2cc3cnc(N)nc3n(-c3cccc(O)c3)c2=O)c2cccc(C)c21 [Compound 098, 2-amino-8-(3-hydroxyphenyl)-6-(5-methyl-4-prop-2-enoyl-2,3-dihydroquinoxalin-1-yl)pyrido[2,3-d]pyrimidin-7-one]	0.25 to 0.5	0.5 to 2.5	–
C=CC(=O)N1CCN(c2cc3cnc(N)nc3n(-c3ccc(N(C)CCOC)cc3)c2=O)c2cccc(C)c21 [Compound 099, 2-amino-8-[4-[2-methoxyethyl(methyl)amino]phenyl]-6-(5-methyl-4-prop-2-enoyl-2,3-dihydroquinoxalin-1-yl)pyrido[2,3-d]pyrimidin-7-one]	≤ 0.25	≤ 0.25	–
C=CC(=O)N1CCN(c2cc3cnc(NC4CC4)nc3n(-c3ccc(N(C)CCOC)cc3)c2=O)c2cccc(C)c21 [Compound 100, 2-(cyclopropylamino)-8-[4-[2-methoxyethyl(methyl)amino]phenyl]-6-(5-methyl-4-prop-2-enoyl-2,3-dihydroquinoxalin-1-yl)pyrido[2,3-d]pyrimidin-7-one]	≤ 0.25	≤ 0.25	–
C=CC(=O)N1CCN(c2cc3cnc(N)nc3n(-c3ccc(N(C)CCN(C)C)cc3)c2=O)c2cccc(C)c21 [Compound 101, 2-amino-8-[4-[2-(dimethylamino)ethyl-methyl-amino]phenyl]-6-(5-methyl-4-prop-2-enoyl-2,3-dihydroquinoxalin-1-yl)pyrido[2,3-d]pyrimidin-7-one]	0.25 to 0.5	0.5 to 2.5	–
C=CC(=O)N1CCN(c2cc3cnc(NC4CCC4)nc3n(-c3ccc(N(C)CCN(C)C)cc3)c2=O)c2cccc(C)c21 [Compound 102, 2-(cyclobutylamino)-8-[4-[2-(dimethylamino)ethyl-methyl-amino]phenyl]-6-(5-methyl-4-prop-2-enoyl-2,3-dihydroquinoxalin-1-yl)pyrido[2,3-d]pyrimidin-7-one]	≤ 0.25	≤ 0.25	–
C=CC(=O)N1CCN(c2cc3cnc(N)nc3n(-c3ccc(CN4CCN(C)CC4)cc3)c2=O)c2cccc(C)c21 [Compound 103, 2-amino-8-[4-[(4-methylpiperazin-1-yl)methyl]phenyl]-6-(5-methyl-4-prop-2-enoyl-2,3-dihydroquinoxalin-1-yl)pyrido[2,3-d]pyrimidin-7-one]	0.25 to 0.5	0.5 to 2.5	–
C=CC(=O)N1CCN(c2cc3cnc(N)nc3n(-c3ccc(OCCN(C)C)c(F)c3)c2=O)c2cccc(C)c21 [Compound 104, 2-amino-8-[4-[2-(dimethylamino)ethoxy]-3-fluoro-phenyl]-6-(5-methyl-4-prop-2-enoyl-2,3-dihydroquinoxalin-1-yl)pyrido[2,3-d]pyrimidin-7-one]	≤ 0.25	≤ 0.25	–
C=CC(=O)N1CCN(c2cc3cnc(NC4CC4)nc3n(C3CCN(C)CC3)c2=O)c2cccc(C)c21 [Compound 105, 2-(cyclopropylamino)-8-(1-methyl-4-piperidyl)-6-(5-methyl-4-prop-2-enoyl-2,3-dihydroquinoxalin-1-yl)pyrido[2,3-d]pyrimidin-7-one]	≤ 0.25	≤ 0.25	–
C=CC(=O)N1CCN(c2cc3cnc(NC4CC4)nc3n(CC3CCOC3)c2=O)c2cccc(C)c21 (stereo not drawn) [Compound 106, 2-(cyclopropylamino)-6-(5-methyl-4-prop-2-enoyl-2,3-dihydroquinoxalin-1-yl)-8-(tetrahydrofuran-3-ylmethyl)pyrido[2,3-d]pyrimidin-7-one]	≤ 0.25	0.25 to 0.5	–
